Measured values reported in patent publication US11246817B2, “Antimicrobial composition” (Conopco, Inc., priority 2016, dated 2022).
Where two headings read alike, the source gives them in different places.

Test system: M. furfur (CBS 1878)
Test: ΣFIC assay against Malassezia furfur (in-vitro susceptibility testing, alamar blue)
Type: cell-based
Settings: for MIC: Malassezia furfur; for interaction with zinc pyrithione (synergy) in words: binary combination with zinc pyrithione, judged from ΣFIC; for ΣFIC: in combination with zinc pyrithione 0 to 12.5 ppm, climbazole 0 to 500 ppm, selenium sulfide 0 to 100 ppm
Protocol: A brief description of the method is given below.
Methods: ΣFIC assay against Malassezia furfur
They are then incubated at 32° C. for 48 hrs with shaking. Then, 1 ml of the first broth culture is transferred into 9 ml of fresh PB and incubated at 32° C. for 48 hrs with shaking. The final culture should contain 2 to 6×10^6 cells/ml. This is achieved by diluting using PB to 5*10^5 cell/ml.
The alcoholic compound was serially diluted (2-fold) to prepare in a range of 10-10,000 ppm in growth medium.
Binary combinations of ZPTO and the testing compound were prepared in 96-well plate by mixing 20 μl of zinc pyrithione solution with 20 μl of testing compound. The solution in each well were further mixed with 160 μl of PB and 20 μl of M. furfur. The final cell density in the testing plate is around 5*10^4 cell/ml, and the final concentration of actives in each well of the 96-wel plate were shown below.
The plate was incubated at 32° C. for one day. Then 20 μl of alamar blue (0.01%) was added into each well with a further incubation for one day to observe the color change. Red color indicates microbial growth and the non-changing blue color indicates no growth.
The MIC is defined as the absolute lowest concentration of active that provides complete microbial growth inhibition as indicated by the blue color of alamar blue under the tested condition.
The differing behaviours of inhibitory antimicrobials in isolation and mixtures have been widely explored using the concept of the Fractional Concentration (FC) and Fractional
Inhibitory Concentration (FIC). The parameter can be defined as follows: […]
The interactions between antimicrobials can be additive, synergistic or antagonistic depending on whether the efficacy of the combination is equivalent to, greater than or less than that obtained for the same total concentration of the individual components when tested alone.
These relationships can be expressed mathematically by summing the fractional MIC values for all the components present in the mixture to give the “fractional inhibition index”. There is no consistent approach in the academic or patent literature in defining precise limiting ΣFIC values that differentiate synergy from additivity or antagonism. In this study, we have adopted a liberal approach defining any binary mixture with ΣFIC <0.9 as showing evidence of synergistic behavior.
ΣFIC=FIC (component 1)+FIC (component 2)
ΣFIC=1 corresponds to additive bactericidal activity
ΣFIC>1 corresponds to antagonistic bactericidal activity
ΣFIC<0.9 corresponds to synergistic bactericidal activity
Climbazole was varied over a concentration of 0 to 500 ppm and selenium sulfide over a concentration of 0 to 100 ppm.

[1] = CBS1878, read-out: Minimum Inhibition Concentration (MIC)

| Compound | MIC (CBS1878, active alone, lowest concentration giving complete growth inhibition (alamar blue stays blue), 32° C., Pityrosporum Broth, read-out: Minimum Inhibition Concentration (MIC)) | interaction with zinc pyrithione (synergy) in words | ΣFIC | MIC [1] | Minimum Inhibition Concentration (MIC) (active alone, lowest concentration giving complete growth inhibition (alamar blue stays blue), 32° C., Pityrosporum Broth) |
| --- | --- | --- | --- | --- | --- |
| CC(C)(C)C(=O)C(Oc1ccc(Cl)cc1)n1ccnc1 (stereo not drawn) [climbazole] | 3.9 µg/mL | not synergistic | 2 |  |  |
| C=CCc1ccc(O)c(-c2ccc(O)c(CC=C)c2)c1 [honokiol] |  |  |  | 1000 µg/mL |  |
| C=CCc1ccc(O)c(-c2cc(CC=C)ccc2O)c1 [magnalol] |  |  |  | 500 µg/mL |  |
| COc1ccc(C(C)=O)c(O)c1 [paeonol] |  |  |  | 500 µg/mL |  |
| S=[Se]=S [selenium sulfide] |  | not synergistic | 2 |  | 50 ppm |
